# Data as given in patent publication US20210338609A1, “COMPOSITIONS FOR ADMINISTRATION TO ANIMALS TO INCREASE GUT NON-PROTEIN NITROGEN LEVELS” (D.I.T Technologies Ltd, priority 2018, published 2021).
# Read-outs that look alike come from different tables or passages of the source.
# Target: T1, urease (Canavalia ensiformis, UniProt P07374)
# T1 construct: purchased Siemens Azostix reagent test strip
# Format: biochemical
# Details: for urea converted to ammonia: within 60 seconds
# Description: In an embodiment, the physiologically acceptable composition may have a pH of substantially 2. […] The capacity of a composition containing urea to produce ammonia toxicity in ruminant animals can be measured with a urease test strip. These strips contain the enzyme urease. Urease is specific to urea and catalyses the breakdown to ammonia, and the strip undergoes a colour change when the urease strip is exposed to ammonia.
# These strips contain the enzyme urease and the indicator bromothymol blue. Urease is specific to urea and breaks it down to ammonia. […] Therefore, the strip turns from yellow to green when the urease strip is exposed to urea. One strip was exposed to a solution of urea at the rate of 1 gram per litre.
# T1 sequence (P07374 whole entry, looked up): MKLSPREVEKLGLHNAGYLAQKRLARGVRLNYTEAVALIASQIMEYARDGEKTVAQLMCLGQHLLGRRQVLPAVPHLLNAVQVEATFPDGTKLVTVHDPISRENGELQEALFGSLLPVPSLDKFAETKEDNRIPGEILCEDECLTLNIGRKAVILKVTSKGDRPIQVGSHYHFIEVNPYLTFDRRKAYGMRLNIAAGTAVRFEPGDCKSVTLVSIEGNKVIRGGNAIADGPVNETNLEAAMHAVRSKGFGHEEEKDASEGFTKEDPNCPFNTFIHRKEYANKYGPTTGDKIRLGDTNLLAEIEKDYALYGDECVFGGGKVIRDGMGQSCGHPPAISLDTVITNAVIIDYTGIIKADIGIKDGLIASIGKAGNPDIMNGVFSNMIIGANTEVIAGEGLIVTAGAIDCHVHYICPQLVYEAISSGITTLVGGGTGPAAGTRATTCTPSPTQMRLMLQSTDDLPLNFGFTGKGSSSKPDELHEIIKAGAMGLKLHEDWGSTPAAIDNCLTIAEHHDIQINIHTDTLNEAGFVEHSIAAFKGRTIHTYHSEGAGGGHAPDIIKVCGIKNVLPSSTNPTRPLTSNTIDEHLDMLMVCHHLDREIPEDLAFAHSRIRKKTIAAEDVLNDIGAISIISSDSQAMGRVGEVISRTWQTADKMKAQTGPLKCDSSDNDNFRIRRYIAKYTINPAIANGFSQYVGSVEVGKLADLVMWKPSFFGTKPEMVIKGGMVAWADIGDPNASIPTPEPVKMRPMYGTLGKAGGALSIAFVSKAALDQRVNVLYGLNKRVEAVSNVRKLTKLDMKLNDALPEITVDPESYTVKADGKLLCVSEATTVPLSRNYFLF
smiles,measurement,setting,value
NC(N)=O [urea],colour change of urease test strip (ammonia production),solution of urea at 1 gram per litre,turned from the unexposed yellow colour to a deep green
same,urea converted to ammonia,"urea only mix, 1 gram per litre",all
NC(N)=O.O=P(O)(O)O [urea phosphate],colour change of urease test strip (ammonia production),urea phosphate at 5 grams per litre,unchanged
same,urea converted to ammonia,"urea phosphate, 5 grams per litre",none
